This is an account of results in patent US10709706B2, “Nuclear transport modulators and uses thereof” (Karyopharm Therapeutics Inc., priority 2015, dated 2020).

Structures are written as SMILES. Where only a bound is given, the exact number is not on record here.

Holding throughout (type): cell-based
The subject of one experiment is Z138 cells. The experiment is described as follows: MTT cell proliferation assay, Z138 cells. To be noted: Homo sapiens, Z-138, approximately 64-72 hours, 1 nM to 30 μM. Here is the method:
(§1) The MTT cell proliferation assay was used to study the cytotoxic properties of the compounds. The assay was performed according to the method described by Roche Molecular Biochemicals, with minor modifications. The assay is based on the cleavage of the tetrazolium salt, MTT, in the presence of an electron-coupling reagent. The water-insoluble formazan salt produced must be solubilized in an additional step. Cells grown in a 96-well tissue culture plate were incubated with the MTT solution for approximately 4 hours. After this incubation period, a water-insoluble formazan dye formed. After solubilization, the formazan dye was quantitated using a scanning multi-well spectrophotometer (ELISA reader). […] The cells were seeded at 5,000-10,000 cells in each well of 96-well plate in 100 μL of fresh culture medium and were allowed to attach overnight. The stock solutions of the compounds were diluted in 100 μL cell culture medium to obtain eight concentrations of each test compound, ranging from 1 nM to 30 μM. […] All optical densities were measured at 490 nm using a Vmax Kinetic Microplate Reader (Molecular Devices). In most cases, the assay was performed in duplicate and the results were presented as a mean percent inhibition to the negative control±SE. The following formula was used to calculate the percent of inhibition: Inhibition (%)=(1−(ODo/OD))×100.
(§2) The compounds were tested against Z138, MM1S and 3T3 cells. The Z138 cell line is a mature B-cell acute lymphoblastic leukemia cell line derived from a patient with chronic lymphocytic leukemia. The MM1S cell line was established from the peripheral blood of a human multiple myeloma patient. 3T3 cells are standard fibroblast cells; they were originally isolated from Swiss mouse embryo tissue.
A general note: Tetrazolium dyes change colour on reduction, which living cells bring about.

A further experiment relates to 3T3 cells. As to the kind of experiment: MTT cell proliferation assay, 3T3 cells. To be noted: Mus musculus, NIH3T3, 3T3 fibroblast cells, approximately 64-72 hours, 1 nM to 30 μM. The procedure: as §1, §2
The test system of a further experiment is MM1S cells. The experiment is described as follows: MTT cell proliferation assay, MM1S cells. To be noted: Homo sapiens, MM1.S, MM1S multiple myeloma cells, approximately 64-72 hours, 1 nM to 30 μM. The procedure: as §1, §2

As a reminder, the IC50 is the concentration at which inhibition is half-maximal. Read a low IC50 as greater potency.

As for `NC(=O)/C(=C/c1ccnc(-c2cc(C(F)(F)F)cc(C(F)(F)F)c2)n1)c1cncc(Cl)c1` [Compound 147, (E)-3-(2-(3,5-bis(trifluoromethyl)phenyl)pyrimidin-4-yl)-2-(5-chloropyridin-3-yl)acrylamide], the IC50 is 0.1 to 5 µM in the experiment on Z138 cells, more than 30 µM with 3T3 cells and less than 0.1 µM with MM1S cells.

Turning to `NC(=O)/C(=C/c1ccnc(-c2cc(C(F)(F)F)cc(C(F)(F)F)c2)n1)c1ccncc1` [Compound 148, (E)-3-(2-(3,5-bis(trifluoromethyl)phenyl)pyrimidin-4-yl)-2-(pyridin-4-yl)acrylamide], the IC50 was 0.1 to 5 µM with Z138 cells, more than 30 µM with 3T3 cells and 0.1 to 5 µM in the experiment on MM1S cells.

As for `NC(=O)/C(=C/c1ccnc(-c2cc(C(F)(F)F)cc(C(F)(F)F)c2)n1)c1cnc(Cl)nc1` [Compound 149, (E)-3-(2-(3,5-bis(trifluoromethyl)phenyl)pyrimidin-4-yl)-2-(2-chloropyrimidin-5-yl)acrylamide], the half-inhibitory concentration (IC50) is 0.1 to 5 µM with Z138 cells, more than 30 µM in the experiment on 3T3 cells and 0.1 to 5 µM in the experiment with MM1S cells.

Regarding `NC(=O)/C(=C/c1ccnc(-c2cc(C(F)(F)F)cc(C(F)(F)F)c2)n1)c1cccc(F)n1` [Compound 150, (E)-3-(2-(3,5-bis(trifluoromethyl)phenyl)pyrimidin-4-yl)-2-(6-fluoropyridin-2-yl)acrylamide], the half-maximal inhibitory concentration (IC50) with Z138 cells is 0.1 to 5 µM; in the experiment on 3T3 cells, more than 30 µM; in the experiment on MM1S cells, 0.1 to 5 µM.

With `NC(=O)/C(=C/c1ccnc(-c2cc(C(F)(F)F)cc(C(F)(F)F)c2)n1)c1ccc(S(=O)(=O)N2CCOCC2)cc1` [Compound 151, (E)-3-(2-(3,5-bis(trifluoromethyl)phenyl)pyrimidin-4-yl)-2-(4-(morpholinosulfonyl)phenyl)acrylamide], the values for the IC50 with Z138 cells, in the experiment with 3T3 cells and in the experiment on MM1S cells were 5 to 30 µM, more than 30 µM and 0.1 to 5 µM, respectively.

Consider `NC(=O)/C(=C/c1ccnc(-c2cc(C(F)(F)F)cc(C(F)(F)F)c2)n1)c1cc(F)nc(F)c1` [Compound 152, (E)-3-(2-(3,5-bis(trifluoromethyl)phenyl)pyrimidin-4-yl)-2-(2,6-difluoropyridin-4-yl)acrylamide], for which the values for the half-maximal inhibitory concentration (IC50) in the experiment on Z138 cells, in the experiment on 3T3 cells and with MM1S cells were 0.1 to 5 µM, more than 30 µM and 0.1 to 5 µM, respectively.

`NC(=O)/C(=C/c1ccnc(-c2cc(C(F)(F)F)cc(C(F)(F)F)c2)n1)c1ccc(Cl)c(Cl)c1` [Compound 153, (E)-3-(2-(3,5-bis(trifluoromethyl)phenyl)pyrimidin-4-yl)-2-(3,4-dichlorophenyl)acrylamide]: the values for the IC50 in the experiment on Z138 cells, in the experiment on 3T3 cells and in the experiment on MM1S cells were more than 30 µM, more than 30 µM and 0.1 to 5 µM, respectively.

Consider `NC(=O)/C(=C/c1ccnc(-c2cc(C(F)(F)F)cc(C(F)(F)F)c2)n1)c1ccc(S(=O)(=O)N2CCCC2)cc1` [Compound 155, (E)-3-(2-(3,5-bis(trifluoromethyl)phenyl)pyrimidin-4-yl)-2-(4-(pyrrolidin-1-ylsulfonyl)phenyl)acrylamide], for which the results for the concentration for half-maximal inhibition (IC50) in the experiment on Z138 cells, with 3T3 cells and with MM1S cells were more than 30 µM, more than 30 µM and 5 to 30 µM, respectively.

`NC(=O)/C(=C/c1ccnc(-c2cc(C(F)(F)F)cc(C(F)(F)F)c2)n1)c1ccc(S(=O)(=O)N2CCCCC2)cc1` [Compound 156, (E)-3-(2-(3,5-bis(trifluoromethyl)phenyl)pyrimidin-4-yl)-2-(4-(piperidin-1-ylsulfonyl)phenyl)acrylamide]: the concentration for half-maximal inhibition (IC50) in the experiment on Z138 cells, in the experiment on 3T3 cells and in the experiment with MM1S cells was more than 30 µM each time.

For `NC(=O)/C(=C/c1ccnc(-c2cc(C(F)(F)F)cc(C(F)(F)F)c2)n1)c1ccc(S(=O)(=O)N2CCC(F)(F)C2)cc1` [Compound 157, (E)-3-(2-(3,5-bis(trifluoromethyl)phenyl)pyrimidin-4-yl)-2-(4-((3,3-difluoropyrrolidin-1-yl)sulfonyl)phenyl)acrylamide], the IC50 was 0.1 to 5 µM in the experiment with Z138 cells, more than 30 µM in the experiment on 3T3 cells and 0.1 to 5 µM in the experiment with MM1S cells.

Take `NC(=O)/C(=C/c1ccnc(-c2cc(C(F)(F)F)cc(C(F)(F)F)c2)n1)c1cncc2ccccc12` [Compound 158, (E)-3-(2-(3,5-bis(trifluoromethyl)phenyl)pyrimidin-4-yl)-2-(isoquinolin-4-yl)acrylamide]: the IC50 in the experiment with Z138 cells is less than 0.1 µM; with 3T3 cells, more than 30 µM; in the experiment with MM1S cells it was less than 0.1 µM.

As to `NC(=O)/C(=C/c1ccnc(-c2cc(C(F)(F)F)cc(C(F)(F)F)c2)n1)c1ccc(S(=O)(=O)N2CCC(F)(F)CC2)cc1` [Compound 159, (E)-3-(2-(3,5-bis(trifluoromethyl)phenyl)pyrimidin-4-yl)-2-(4-((4,4-difluoropiperidin-1-yl)sulfonyl)phenyl)acrylamide], the IC50 in the experiment with Z138 cells is 0.1 to 5 µM; in the experiment on 3T3 cells it was more than 30 µM; in the experiment on MM1S cells, 5 to 30 µM.

On to `NC(=O)/C(=C/c1ccnc(-c2cc(C(F)(F)F)cc(C(F)(F)F)c2)n1)c1cccc(S(=O)(=O)N2CCC(C(F)(F)F)CC2)c1` [Compound 160, (E)-3-(2-(3,5-bis(trifluoromethyl)phenyl)pyrimidin-4-yl)-2-(3-((4-(trifluoromethyl)piperidin-1-yl)sulfonyl)phenyl)acrylamide], for which the IC50 in the experiment on Z138 cells, in the experiment on 3T3 cells and with MM1S cells was more than 30 µM in each case.

For `Cc1ccc(F)cc1/C(=C\c1ccnc(-c2cc(C(F)(F)F)cc(C(F)(F)F)c2)n1)C(N)=O` [Compound 161, (E)-3-(2-(3,5-bis(trifluoromethyl)phenyl)pyrimidin-4-yl)-2-(5-fluoro-2-methylphenyl)acrylamide], the IC50 with Z138 cells, in the experiment with 3T3 cells and in the experiment on MM1S cells was more than 30 µM throughout.

In the case of `NC(=O)/C(=C/c1ccnc(-c2cc(C(F)(F)F)cc(C(F)(F)F)c2)n1)c1cccc(S(=O)(=O)N2CCCC2)c1` [Compound 162, (E)-3-(2-(3,5-bis(trifluoromethyl)phenyl)pyrimidin-4-yl)-2-(3-(pyrrolidin-1-ylsulfonyl)phenyl)acrylamide], the IC50 with Z138 cells, in the experiment on 3T3 cells and with MM1S cells was more than 30 µM in each case.

For the molecule `NC(=O)/C(=C/c1ccnc(-c2cc(C(F)(F)F)cc(C(F)(F)F)c2)n1)c1ccc(F)cc1` [Compound 163, (E)-3-(2-(3,5-bis(trifluoromethyl)phenyl)pyrimidin-4-yl)-2-(4-fluorophenyl)acrylamide], the IC50 in the experiment on Z138 cells, in the experiment with 3T3 cells and with MM1S cells was more than 30 µM each time.

For the molecule `CC1(C)CN(S(=O)(=O)c2cccc(/C(=C\c3ccnc(-c4cc(C(F)(F)F)cc(C(F)(F)F)c4)n3)C(N)=O)c2)CCO1` [Compound 164, (E)-3-(2-(3,5-bis(trifluoromethyl)phenyl)pyrimidin-4-yl)-2-(3-((2,2-dimethylmorpholino)sulfonyl)phenyl)acrylamide], the concentration for half-maximal inhibition (IC50) is more than 30 µM in the experiment on Z138 cells, more than 30 µM in the experiment on 3T3 cells and 0.1 to 5 µM in the experiment on MM1S cells.

As to `NC(=O)/C(=C/c1ccnc(-c2cc(C(F)(F)F)cc(C(F)(F)F)c2)n1)c1ccc(N2CCOCC2)cc1` [Compound 165, (E)-3-(2-(3,5-bis(trifluoromethyl)phenyl)pyrimidin-4-yl)-2-(4-morpholinophenyl)acrylamide], the IC50 in the experiment with Z138 cells, with 3T3 cells and in the experiment on MM1S cells was more than 30 µM in each case.

Consider `NC(=O)/C(=C/c1ccnc(-c2cc(C(F)(F)F)cc(C(F)(F)F)c2)n1)c1cccc(S(=O)(=O)N2CCC2)c1` [Compound 166, (E)-2-(3-(azetidin-1-ylsulfonyl)phenyl)-3-(2-(3,5-bis(trifluoromethyl)phenyl)pyrimidin-4-yl)acrylamide], for which the half-maximal inhibitory concentration (IC50) with Z138 cells, in the experiment on 3T3 cells and in the experiment on MM1S cells was more than 30 µM in each case.

Consider `NC(=O)/C(=C/c1ccnc(-c2cc(C(F)(F)F)cc(C(F)(F)F)c2)n1)c1cccc(S(=O)(=O)N2CCCCC2)c1` [Compound 167, (E)-3-(2-(3,5-bis(trifluoromethyl)phenyl)pyrimidin-4-yl)-2-(3-(piperidin-1-ylsulfonyl)phenyl)acrylamide], for which the IC50 in the experiment on Z138 cells, in the experiment on 3T3 cells and in the experiment with MM1S cells was more than 30 µM throughout.
